These results are taken from patent publication US12059407B2, “Compositions and methods for delivery of macromolecules” (The Regents of the University of California, priority 2017, dated 2024).

In series [1] the test system is HEK293T cells. The series can be described thus: Model study with Saporin: protein delivery. Type of series: cell-based. The following applies: HEK293T cells treated with only Saporin or only compound 1.
Series [2] concerns HEK293T cells. Put plainly: Cytotoxicity assay in HEK293T cells. Type of series: cell-based.

On to Saporin, for which the “cell death, single agent only” value in series [1] was “no cell death”.

What is called CC50 is the concentration at which the toxic effect on the cells reaches its halfway point. Triton X showed a CC50 in series [2] of 59 µM.
